# Experimental data from ChEMBL document CHEMBL1764972, “Phomalevones A-C: dimeric and pseudodimeric polyketides from a fungicolous Hawaiian isolate of Phoma sp. (Cucurbitariaceae)” (J Nat Prod, 2011).
# The source made the active and inactive calls. The rule behind the calls is not given here.
# Legend:
# [1] = system: Staphylococcus aureus; test: Antibacterial activity against Staphylococcus aureus ATCC 29213 at 100 ug/disk by agar disk diffusion assay; type: functional; details: read-out: IZ
# [2] = system: Bacillus subtilis; test: Antibacterial activity against Bacillus subtilis ATCC 6051 at 100 ug/disk by agar disk diffusion assay; type: functional; details: read-out: IZ
# [3] = system: Escherichia coli; test: Antibacterial activity against Escherichia coli ATCC 25922 at 100 ug/disk by agar disk diffusion assay; type: functional; details: read-out: IZ
# [4] = system: Candida albicans; test: Antimicrobial activity against Candida albicans ATCC 14053 at 100 ug/disk by agar disk diffusion assay; type: functional; details: read-out: IZ
# [5] = system: Aspergillus flavus; test: Antifungal activity against Aspergillus flavus NRRL 6541 at 200 ug/disk by agar disk diffusion assay; type: functional; details: read-out: IZ
# [6] = system: Aspergillus flavus; test: Antifungal activity against Aspergillus flavus NRRL 6541 up to 25 ug/ml by agar disk diffusion assay; type: functional, organism-based
# [7] = system: Fusarium verticillioides; test: Antifungal activity against Gibberella moniliformis NRRL 25457 by agar disk diffusion assay; type: functional, organism-based
# [8] = system: Fusarium verticillioides; test: Antifungal activity against Gibberella moniliformis NRRL 25457 at 200 ug/disk by agar disk diffusion assay; type: functional; details: read-out: IZ
# [9] = system: Aspergillus flavus; test: Antifungal activity against Aspergillus flavus NRRL 6541 by agar disk diffusion assay; type: functional, organism-based
# [10] = system: Staphylococcus aureus; test: Antibacterial activity against Staphylococcus aureus ATCC 29213 at 25 ug/disk by agar disk diffusion assay; type: functional, organism-based
# [11] = system: Bacillus subtilis; test: Antibacterial activity against Bacillus subtilis ATCC 6051 at 25 ug/disk by agar disk diffusion assay; type: functional, organism-based
compound,measurement,setting,value
Cc1cc2c(c(O)c1-c1c(C)cc3c(c1O)C(=O)C1=C(O)C=C[C@H](O)[C@]1(C)O3)C(=O)C1=C(O)C=C[C@H](O)[C@]1(C)O2 [PHOMALEVONE A],zone of inhibition at 100 µg/disc,[1],23 mm
same,zone of inhibition at 100 µg/disc,[2],36 mm
Cc1cc(O)c(C(=O)c2c(O)ccc(O)c2C)c(O)c1-c1c(C)cc(O)c(C(=O)c2c(O)ccc(O)c2C)c1O [PHOMALEVONE B],zone of inhibition at 100 µg/disc,[3],18 mm
same,zone of inhibition at 100 µg/disc,[1],26 mm
same,zone of inhibition at 100 µg/disc,[2],38 mm
same,zone of inhibition at 100 µg/disc,[4],18 mm
Cc1cc2c(c(O)c1-c1c(C)cc3c(c1O)C(=O)C1=C(O)C=C[C@H](O)[C@]1(C)O3)C(=O)C1=C(O)C=CC(=O)[C@]1(C)O2 [PHOMALEVONE C],zone of inhibition at 200 µg/disc,[5],10 mm
same,Activity,[6],inactive
same,MIC,[7],10 µg/mL
same,zone of inhibition at 100 µg/disc,[1],22 mm
same,zone of inhibition at 200 µg/disc,[8],10 mm
same,IC50,[9],4 µg/mL
same,zone of inhibition at 100 µg/disc,[2],34 mm
GENTAMICIN SULFATE,inhibition zone (IZ),[10],20 mm
same,inhibition zone (IZ),[11],20 mm
NYSTATIN,MIC,[7],10 µg/mL
same,MIC,[9],10 µg/mL
